# Measured values reported in patent US8389236B2, “Assay” (Otago Innovation Limited, priority 2005, dated 2013).
# Several values for one entry are separate records, joined by “and”; a condition that tells them apart may be missing. Equal values may be shown once.
# How the values were obtained:
# [1] = system: HIV-1 gag/pol −1 frameshift signal sequence (HIV-1 frameshift construct); assay: Stably transfected dual fluorescent reporter recoding assay in Flp-In CV1 cells (−1 frame construct); type: cell-based; conditions: for DsRed/EGFP ratio / Percentage decrease in ratio / Minus 1 Frameshift Construct EGFP signal, Average / Minus 1 Frameshift Construct DsRed signal, Average: 120 hours; for DsRed/EGFP ratio / Percentage decrease in ratio: stable Flp-In CV1 cells; for DsRed/EGFP ratio: not normalised to Null 0, expressed as a percentage; for Percentage decrease in ratio: vs no drug; for Minus 1 Frameshift Construct EGFP signal, Average: 485 excitation 515 emission; for Minus 1 Frameshift Construct DsRed signal, Average: 535 excitation 590 emission
# Experimental: The translational recoding construct described above was excised via Hind III and Not I restrictions sites and ligated into a Flp-In™ pcDNA5/FRT expression vector (Invitrogen Life Technologies) before being stably transformed into Flp-In™ CV1 cells (Invitrogen Life Technologies) according to the manufacturer's instructions.
# Flp-In CV1 cells (CV1 cells), as described in Example 2, transfected with the −1 frame construct, and untransfected CV1 cells were grown, harvested, trypsinised, washed and diluted to 1×10^5 cells/ml all under standard conditions.
# Cells were then seeded in 96 well plates under standard conditions. The plates were then incubated for 120 hours at 37° C.
# The cells were washed 3 times with Phosphate Buffered Saline (PBS) to remove any traces of culture medium. 100 ul of Passive Lysis buffer (Promega) was added. The cells were frozen. The frozen cells were then thawed and fluorescence intensity was read in the Tecan Genios Pro plate reader.
# Plate reader setting were as follows:
# Filters 485 excitation, 515 emission
# Filters 535 excitation, 590 emission
# As a Null 0 frameshift construct was not used in this experiment ratios of the DsRed to EGFP signal were calculated to take into account the decrease in the EGFP signal with increasing drug concentrations.
# The calculation was similar to example 3, with the counts averaged, the control cell counts removed before working out the ratio of the DsRed signal to the EGFP signal. Normalisation using a Null 0 frame construct could not be performed, with the results below being expressed as a percentage. The calculation was a follows: [[DsRed signal: HIV-1 frameshift construct]/[EGFP signal: HIV-1 frameshift construct]]
# [2] = system: HIV-1 gag/pol −1 frameshift signal sequence (HIV-1 frameshift construct); assay: Dual fluorescent reporter (EGFP/DsRed) recoding assay in transiently transfected COS-7 cells, with Null 0 control construct; type: cell-based; conditions: for Minus 1 Frameshift Construct EGFP signal, Average / Null 0 Frameshift Construct EGFP signal, Average: 485 excitation 520-P emission; for Minus 1 Frameshift Construct DsRed signal, Average / Null 0 Frameshift Construct DsRed signal, Average: 525 excitation 600LP emission; for Frameshift: DsRed 525 excitation/600LP emission
# Experimental: Mammalian COS-7 cells were grown, harvested, trypsinised, washed and diluted to 1×10^5 cells/ml all under standard conditions.
# The diluted cells were then split into two equal portions. One portion was transiently transfected with the recoding construct, and other with the Null 0 frame control construct. Transient transfection was performed using 2 μL of FuGENE® 6 transfection reagent (Roche) and 500 ng of DNA for every mL of cells, in accordance with the manufacturing instructions.
# Transfected cells were seeded in 24 well plates under standard conditions. Cycloheximide was added in triplicate at 50 nM and the plates were then incubated for 48 hours at 37° C.
# The cells were washed 3 times with Phosphate Buffered Saline (PBS) to remove any traces of culture medium. 100 ul of Passive Lysis buffer (Promega) was added. The cells were frozen. The frozen cells were then thawed and transferred to a 96 well plate, and fluorescence intensity was read in the BMG PolarStar plate reader.
# Plate reader settings were as follows:
# Filters 485 excitation, 520-P emission
# Filters 544 excitation, 590 emission
# [[DsRed signal: HIV-1 frameshift construct]/[EGFP signal: HIV-1 frameshift construct]]/[[DsRed signal: Null 0 frameshift construct]/[EGFP signal: Null 0 frameshift construct]]
# The diluted cells were then split into two equal portions. One portion was transfected, as described in Example 3, with the recoding construct, and other with the Null 0 frame control construct.
# Cells were then seeded in 24 well plates under standard conditions. Anisomycin was added in triplicate at 50 nM and the plates were then incubated for 48 hours at 37° C.
# The cells were prepared as described in examples 3 and 4.
# DsRed signal at 525 excitation, 600LP emission
# EGFP signal at 485 excitation, 520-P emission
# Frameshift figures, shown in Table 5, were calculated using the formula shown in Example 3 using data from Tables 1, 2, 3 and 4.
# Transfected cells were prepared as described in Example 5, and treated with 0 nM (no drug) 100 nM, 200 nM, 300 nM, 400 nM and 500 nM concentrations of anisomycin.
# Incubation, plate reader setting and readings were as described in Example 5.
# For the anisomycin titrations, the frameshift figures, shown in Table 10, were calculated using the formula shown in Example 3 using data from Tables 6, 7, 8 and 9.
# [3] = 50 nM, 48 hours, 485 excitation, 520-P emission
# [4] = 50 nM, 48 hours, 544 excitation, 590 emission
# [5] = 100 nM, COS-7, 525/600LP filters, vs no drugs
smiles,measurement,setting,value
C[C@@H]1C[C@@H]([C@H](O)CC2CC(=O)NC(=O)C2)C(=O)[C@@H](C)C1 [Cycloheximide],DsRed/EGFP ratio,[1]; 50 nM,7.38%
same,Percentage decrease in ratio,[1]; 50 nM,4.11%
same,"Minus 1 Frameshift Construct EGFP signal, Average",[1]; 50 nM,11313
same,"Minus 1 Frameshift Construct DsRed signal, Average",[1]; 50 nM,1220
same,DsRed/EGFP ratio,[1]; 100 nM,7.28%
same,Percentage decrease in ratio,[1]; 100 nM,5.39%
same,"Minus 1 Frameshift Construct EGFP signal, Average",[1]; 100 nM,11262
same,"Minus 1 Frameshift Construct DsRed signal, Average",[1]; 100 nM,1210
same,DsRed/EGFP ratio,[1]; 500 nM,5.47%
same,Percentage decrease in ratio,[1]; 500 nM,28.91%
same,"Minus 1 Frameshift Construct EGFP signal, Average",[1]; 500 nM,8638
same,"Minus 1 Frameshift Construct DsRed signal, Average",[1]; 500 nM,948
same,DsRed/EGFP ratio,[1]; 1000 nM,3.25%
same,Percentage decrease in ratio,[1]; 1000 nM,57.82%
same,"Minus 1 Frameshift Construct EGFP signal, Average",[1]; 1000 nM,7308
same,"Minus 1 Frameshift Construct DsRed signal, Average",[1]; 1000 nM,818
same,DsRed/EGFP ratio,[1]; 2000 nM,−2.94%
same,Percentage decrease in ratio,[1]; 2000 nM,138.27%
same,"Minus 1 Frameshift Construct EGFP signal, Average",[1]; 2000 nM,6285
same,"Minus 1 Frameshift Construct DsRed signal, Average",[1]; 2000 nM,688
same,% decrease in ratio over concentration range,"[1]; range between 50 nM and 2000 nM, stable cells, result in words",dose responsive effect
same,decrease in frameshift from the original (no drug) value,"[2]; 50 nM, 48 hours, COS-7, 544/590 filters",5%
same,absolute change frameshift efficiency,"[2]; 50 nM, 48 hours, COS-7, vs no drug control, 544/590 filters",0.29%
same,"EGFP signal, HIV-1 frameshift construct, average",[2]; [3],24268 RFU
same,"EGFP signal, HIV-1 frameshift construct, average minus control",[2]; [3],23858 RFU
same,"EGFP signal, Null 0 frameshift construct, average",[2]; [3],42054 RFU
same,"EGFP signal, Null 0 frameshift construct, average minus control",[2]; [3],41644 RFU
same,"DsRed signal, HIV-1 frameshift construct, average",[2]; [4],1447 RFU
same,"DsRed signal, HIV-1 frameshift construct, average minus control",[2]; [4],1342 RFU
same,"DsRed signal, Null 0 frameshift construct, average",[2]; [4],43596 RFU
same,"DsRed signal, Null 0 frameshift construct, average minus control",[2]; [4],43491 RFU
same,"Minus 1 Frameshift Construct EGFP signal, Average",[2]; 100 nM,23068
same,"Null 0 Frameshift Construct EGFP signal, Average",[2]; 100 nM,41181
same,"Minus 1 Frameshift Construct DsRed signal, Average",[2]; 100 nM,2384
same,"Null 0 Frameshift Construct DsRed signal, Average",[2]; 100 nM,39126
same,Percentage decrease in frameshift,[2]; [5],2.7% and 2.71%
same,absolute change in frameshift efficiency,[2]; [5],0.23%
same,Frameshift,"[2]; 100 nM, COS-7",8.25%
same,"Minus 1 Frameshift Construct EGFP signal, Average",[2]; 200 nM,25793
same,"Null 0 Frameshift Construct EGFP signal, Average",[2]; 200 nM,42120
same,"Minus 1 Frameshift Construct DsRed signal, Average",[2]; 200 nM,2567
same,"Null 0 Frameshift Construct DsRed signal, Average",[2]; 200 nM,40152
same,Percentage decrease in frameshift,"[2]; 200 nM, COS-7, 525/600LP filters, vs no drugs",4.51%
same,Frameshift,"[2]; 200 nM, COS-7",8.10%
same,"Minus 1 Frameshift Construct EGFP signal, Average",[2]; 300 nM,27197
same,"Null 0 Frameshift Construct EGFP signal, Average",[2]; 300 nM,46595
same,"Minus 1 Frameshift Construct DsRed signal, Average",[2]; 300 nM,2674
same,"Null 0 Frameshift Construct DsRed signal, Average",[2]; 300 nM,45168
same,Percentage decrease in frameshift,"[2]; 300 nM, COS-7, 525/600LP filters, vs no drugs",6.17%
same,Frameshift,"[2]; 300 nM, COS-7",7.96%
same,"Minus 1 Frameshift Construct EGFP signal, Average",[2]; 400 nM,27613
same,"Null 0 Frameshift Construct EGFP signal, Average",[2]; 400 nM,42950
same,"Minus 1 Frameshift Construct DsRed signal, Average",[2]; 400 nM,2704
same,"Null 0 Frameshift Construct DsRed signal, Average",[2]; 400 nM,41311
same,Percentage decrease in frameshift,"[2]; 400 nM, COS-7, 525/600LP filters, vs no drugs",5.52%
same,Frameshift,"[2]; 400 nM, COS-7",8.01%
same,"Minus 1 Frameshift Construct EGFP signal, Average",[2]; 500 nM,28615
same,"Null 0 Frameshift Construct EGFP signal, Average",[2]; 500 nM,42742
same,"Minus 1 Frameshift Construct DsRed signal, Average",[2]; 500 nM,2790
same,"Null 0 Frameshift Construct DsRed signal, Average",[2]; 500 nM,41338
same,Percentage decrease in frameshift,"[2]; 500 nM, COS-7, 525/600LP filters, vs no drugs",5.66%
same,Frameshift,"[2]; 500 nM, COS-7",8.00%
same,effect on −1 frameshifting,[2]; result in words,antagonists to −1 frameshifting
